Assay results reported in patent US10052306B2 (LUC THERAPEUTICS, INC., priority 2013, dated 2018).
Where “and” joins values, the source holds several entries; their conditions need not be identical. Equal entries are not always repeated.

Tests used:
[1] = target: NR1/NR2B (Homo sapiens (Human), UniProt Q13224); test: Cell assay: FDSS Ca2+ influx inhibition in HEK293 cells expressing NR1/NR2B; conditions: read-out: NR2B NAM IC50; HEK293 cells expressing NR1/NR2B, Ca2+ influx;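 also: Fluo-8 Ca2+ signal read on Hamamatsu FDSS 6000 after glutamate, glycine and Ca2+ challenge following 10 min compound preincubation, end/baseline fluorescence ratio compared with MK801 control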
Sequence of NR1/NR2B (Homo sapiens (Human), UniProt Q13224) (Q13224 27-1484, other chains not shown): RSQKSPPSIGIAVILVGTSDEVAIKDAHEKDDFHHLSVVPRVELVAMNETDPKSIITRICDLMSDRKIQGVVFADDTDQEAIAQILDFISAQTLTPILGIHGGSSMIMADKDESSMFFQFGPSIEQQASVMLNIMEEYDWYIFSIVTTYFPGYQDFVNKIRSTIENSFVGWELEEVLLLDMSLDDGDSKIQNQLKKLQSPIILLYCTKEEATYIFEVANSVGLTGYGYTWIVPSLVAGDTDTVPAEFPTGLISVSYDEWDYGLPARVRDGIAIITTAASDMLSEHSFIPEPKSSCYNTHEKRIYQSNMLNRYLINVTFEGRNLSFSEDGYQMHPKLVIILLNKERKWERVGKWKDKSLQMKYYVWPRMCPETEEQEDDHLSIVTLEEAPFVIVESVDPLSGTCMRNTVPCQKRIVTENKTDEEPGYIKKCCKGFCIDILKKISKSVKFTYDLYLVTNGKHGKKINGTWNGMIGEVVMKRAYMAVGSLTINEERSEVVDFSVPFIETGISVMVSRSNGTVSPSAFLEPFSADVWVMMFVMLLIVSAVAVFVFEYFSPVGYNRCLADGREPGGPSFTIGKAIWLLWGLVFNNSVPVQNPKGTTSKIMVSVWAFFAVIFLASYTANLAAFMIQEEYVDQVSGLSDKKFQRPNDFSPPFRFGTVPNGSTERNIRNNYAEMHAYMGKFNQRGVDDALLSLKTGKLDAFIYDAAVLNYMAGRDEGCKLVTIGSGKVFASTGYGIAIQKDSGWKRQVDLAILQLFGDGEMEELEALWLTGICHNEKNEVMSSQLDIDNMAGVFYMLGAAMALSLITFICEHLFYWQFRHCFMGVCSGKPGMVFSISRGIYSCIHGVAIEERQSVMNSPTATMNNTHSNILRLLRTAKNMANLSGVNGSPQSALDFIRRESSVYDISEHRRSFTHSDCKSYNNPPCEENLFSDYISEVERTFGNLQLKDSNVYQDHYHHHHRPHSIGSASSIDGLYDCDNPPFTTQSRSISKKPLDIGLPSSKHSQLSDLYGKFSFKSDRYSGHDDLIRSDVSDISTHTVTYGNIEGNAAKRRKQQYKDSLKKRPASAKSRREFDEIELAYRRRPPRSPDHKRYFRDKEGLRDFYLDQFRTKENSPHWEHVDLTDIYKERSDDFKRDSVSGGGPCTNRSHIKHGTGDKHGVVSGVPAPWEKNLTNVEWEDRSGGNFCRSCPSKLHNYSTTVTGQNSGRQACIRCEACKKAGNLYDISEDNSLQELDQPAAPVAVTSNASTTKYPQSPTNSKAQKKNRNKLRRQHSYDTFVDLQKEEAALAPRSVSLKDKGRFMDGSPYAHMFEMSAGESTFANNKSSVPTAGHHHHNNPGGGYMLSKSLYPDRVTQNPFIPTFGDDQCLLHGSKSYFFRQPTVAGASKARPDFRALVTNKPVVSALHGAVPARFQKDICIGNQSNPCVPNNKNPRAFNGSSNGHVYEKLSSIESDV

[2] = target: NR1/NR2B (Homo sapiens (Human), UniProt Q05586+Q13224); test: as above; conditions: Binned Activity, HEK293 cells expressing NR1/NR2B, Ca2+ influx; binned NR2B NAM IC50
Sequence of NR1/NR2B (Homo sapiens (Human), UniProt Q05586+Q13224) (Q13224 27-1484, other chains not shown): as above

IC50 [1] | IC50 [2] [µM] | SMILES
10 µM | > 10 | O=C(Nc1cccc(Cl)c1)N1C[C@@H]2C[C@@](O)(c3ccccc3)C[C@@H]2C1 [Example 4, N-(3-chlorophenyl)-5-hydroxy-5-phenyl-octahydrocyclopenta[c] pyrrole-2-carboxamide]
10 µM | > 10 | COc1cccc(-c2ccc(C(=O)CN3C[C@@H]4C[C@@](O)(Cc5ccccc5)C[C@@H]4C3)cc2)c1 [Example 265, 2-((3aR,5r,6aS)-5-benzyl-5-hydroxyhexahydrocyclo-penta[c]pyrrol-2(1H)-yl)-1-(3′-methoxy-[1,1′-biphenyl]-4-yl)ethanone]
10 µM | > 10 | O=C(CN1C[C@@H]2C[C@@](O)(Cc3ccccc3)C[C@@H]2C1)c1ccc(Cl)nc1 [Example 155, 2-((3aR,5r,6aS)-5-benzyl-5-hydroxyhexahydrocyclo-penta[c]pyrrol-2(1H)-yl)-1-(6-chloropyridin-3-yl)ethanone]
10 µM | > 10 | CC(=O)Nc1ccc(C(=O)CN2C[C@@H]3C[C@@](O)(Cc4ccccc4)C[C@@H]3C2)cc1 [Example 141, N-(4-(2-((3aR,5r,6aS)-5-benzyl-5-hydroxyhexahydrocyclo-penta[c]pyrrol-2(1H)-yl)acetyl)phenyl) acetamide]
0.0441 µM | < 0.1 | O=C(CN1C[C@@H]2C[C@@](O)(Cc3ccccc3)C[C@@H]2C1)c1ccc(O)cc1 [Example 130, 2-((3aR,5r,6aS)-5-benzyl-5-hydroxyhexahydrocyclo-penta[c]pyrrol-2(1H)-yl)-1-(4-hydroxyphenyl)ethanone]
10 µM | > 10 | Cc1ccc(NC(=O)N2C[C@@H]3C[C@@](O)(c4ccc(F)cc4)C[C@@H]3C2)cc1 [Example 36, 5-(4-fluorophenyl)-5-hydroxy-N-(4-methylphenyl)-octahydrocyclopenta[c] pyrrole-2-carboxamide]
10 µM | > 10 | CC(C)(C)c1ccc([C@]2(O)C[C@H]3CN(c4ccccn4)C[C@H]3C2)cc1 [Example 88, 5-(4-tert-butylphenyl)-2-(pyridin-2-yl)-octahydrocyclopenta[c] pyrrol-5-ol]
0.0223 µM and 0.0228 µM | < 0.1 | Oc1ccc([C@@H](O)CN2C[C@@H]3C[C@@](O)(Cc4ccccc4)C[C@@H]3C2)cc1F [Example 180, (3aR,5R,6aS)-5-benzyl-2-((R)-2-(3-fluoro-4-hydroxyphenyl)-2-hydroxyethyl)octahydro-cyclopenta[c]pyrrol-5-ol]
10 µM | > 10 | CC(C)(C)c1ccc([C@]2(O)C[C@H]3CN(C(=O)Nc4cccc(Cl)c4)C[C@H]3C2)cc1 [Example 56, 5-(4-tert-butylphenyl)-N-(3-chlorophenyl)-5-hydroxy-octahydrocyclopenta[c] pyrrole-2-carboxamide]
10 µM | > 10 | COc1ccccc1NC(=O)N1C[C@@H]2C[C@@](O)(Cc3ccccc3)C[C@@H]2C1 [Example 128, (3aR,5r,6aS)-5-benzyl-5-hydroxy-N-(2-meth-oxyphenyl)hexahydro-cyclopenta[c]pyrrole-2(1H)-carboxamide]
10 µM | > 10 | N#Cc1cccc(NC(=O)N2C[C@@H]3C[C@@](O)(c4ccccc4)C[C@@H]3C2)c1 [Example 26, N-(3-cyanophenyl)-5-hydroxy-5-phenyl-octahydrocyclopenta[c] pyrrole-2-carboxmaide]
10 µM | > 10 | Cc1ccccc1[C@]1(O)C[C@H]2CN(c3cccc(C(F)(F)F)n3)C[C@H]2C1 [Example 84, 5-(2-methylphenyl)-2-[6-(trifluoromethyl)pyridin-2-yl]-octahydrocyclopenta[c] pyrrol-5-ol]
10 µM | > 10 | COc1ccc(C)cc1NC(=O)N1C[C@@H]2C[C@@](O)(c3ccc(F)cc3)C[C@@H]2C1 [Example 42]
10 µM | > 10 | COc1cccc(NC(=O)N2C[C@H]3CC(Cc4ccccc4)C[C@H]3C2)c1 (stereo partly drawn) [Example 294, (3aR,6aS)-5-benzyl-N-(3-methoxyphenyl) hexahydro-cylcopenta[c]pyrrole-2(1H)-carboxamide]
6.94 µM | 1 to 10 | O=C(CN1C[C@@H]2C[C@@](O)(Cc3ccccc3)C[C@@H]2C1)c1ccc(O)cn1 [Example 140, 2-((3aR,5r,6S)-5-benzyl-5-hydroxyhexahydrocyclo-penta[c]pyrrol-2(1H)-yl)-1-(5-hydroxypyridin-2-yl)ethanone]
10 µM | > 10 | COc1cccc([C@]2(O)C[C@H]3CN(C(=O)Nc4cc(C)ccc4OC)C[C@H]3C2)c1 [Example 33, 5-hydroxy-N-(2-methoxy-5-methylphenyl)-5-(3-methoxyphenyl)-octahydrocyclopenta[c] pyrrole-2-carboxamide]

More lines, now with the values behind:

SMILES | IC50 [1] | IC50 [2] [µM]
COc1ccc(NC(=O)N2C[C@@H]3C[C@@](O)(c4ccccc4)C[C@@H]3C2)cc1 [Example 1, 5-hydroxy-N-(4-methoxyphenyl)-5-phenylhexahydrocyclopenta[c]pyrrole-2(1H)-carboxamide] | 10 µM | > 10
O[C@@]1(c2ccc(F)cc2)C[C@H]2CN(c3cccc(C(F)(F)F)n3)C[C@H]2C1 [Example 81, 5-(4-fluorophenyl)-2-[6-(trifluoromethyl)pyridin-2-yl]-octahydrocyclopenta[c] pyrrol-5-ol] | 10 µM | > 10
Oc1ccc([C@@H](O)CN2C[C@@H]3C[C@@](O)(Cc4ccc(F)cc4)C[C@@H]3C2)nc1 [Example 255, (3aR,5S,6aS)-5-(4-fluorobenzyl)-2-((S)-2-hydroxy-2-(5-hydroxypyridin-2-yl)ethyl)octahydrocyclo-penta[c]pyrrol-5-ol] | 0.024 µM | < 0.1
O=C(CN1C[C@@H]2C[C@@](O)(Cc3ccccc3)C[C@@H]2C1)c1cnc(OCc2ccccc2)cn1 [Example 162, 2-((3aR,5r,6aS)-5-benzyl-5-hydroxyhexahydrocyclo-penta[c]pyrrol-2(1H)-yl)-1-(5-(benzyloxy)pyrazin-2-yl)ethanone] | 10 µM | > 10
Oc1ccc([C@@H](O)CN2C[C@@H]3C[C@](O)(Cc4ccccc4)C[C@@H]3C2)cc1 [Example 2291, (3aR,5R,6aS)-5-benzyl-2-((R)-2-hydroxy-2-(4-hydroxyphenyl)ethyl) octahydrocyclopenta [c]pyrrol-5-ol] | 0.332 µM | 0.1 to 1
Cc1cccc(N2C[C@@H]3C[C@@](O)(c4ccc(C(C)(C)C)cc4)C[C@@H]3C2)n1 [Example 89, 5-(4-tert-butylphenyl)-2-(6-methylpyridin-2-yl)-octahydrocyclopenta[c] pyrrol-5-ol] | 10 µM | > 10
Oc1ccc([C@H](O)CN2C[C@@H]3C[C@@](O)(Cc4ccc(F)cc4)C[C@@H]3C2)nc1 [Example 256, (3aR,5R,6aS)-5-(4-fluorobenzyl)-2-((R)-2-hydroxy-2-(5-hydroxypyridin-2-yl)ethyl)octahydrocyclo-penta[c]pyrrol-5-ol] | 0.0317 µM | < 0.1
O=C(CN1C[C@@H]2C[C@@](O)(Cc3ccccc3)C[C@@H]2C1)c1ccc(-c2ccccc2)cc1 [Example 258, 1-([1,1′-biphenyl]-4-yl)-2-((3aR,5r,6aS)-5-benzyl-5-hydroxyhexahydrocyclo-penta[c]pyrrol-2(1H)-yl)ethanone] | 10 µM | > 10
O=C(CN1C[C@@H]2C[C@@](O)(Cc3ccccc3F)C[C@@H]2C1)c1ccc(O)cn1 [Example 221, 2-(5-(2-fluorobenzyl)-5-hydroxyhexahydrocyclo-penta[c]pyrrol-2(1H)-yl)-1-(5-hydroxypyridin-2-yl)ethanone] | 0.998 µM | 0.1 to 1
O=C(CN1C[C@@H]2C[C@@](O)(Cc3ccc(F)cc3F)C[C@@H]2C1)c1ccc(O)cn1 [Example 230, 2-((3aR,5r,6aS)-5-(2,4-difluorobenzyl)-5-hydroxyhexahydrocyclo-penta[c]pyrrol-2(1H)-yl)-1-(5-hydroxypyridin-2-yl)ethanone] | 2.16 µM | 1 to 10
O=C(CN1C[C@@H]2C[C@@](O)(Cc3ccc(F)cc3)C[C@@H]2C1)c1ccc(O)cn1 [Example 166, 2-((3aR,5r,6aS)-5-(4-fluorobenzyl)-5-hydroxyhexahydrocyclo-penta[c]pyrrol-2(1H)-yl)-1-(5-hydroxypyridin-2-yl)ethanone] | 6.4 µM | 1 to 10
O=C(CN1C[C@@H]2C[C@@](O)(Cc3ccc(C(F)(F)F)cc3)C[C@@H]2C1)c1ccc(O)cn1 [Example 216, 2-[(3aR,5R,6aS)-5-hydroxy-5-{[4-(trifluoromethyl)phenyl]methyl}-octahydrocyclopenta[c]pyrrol-2-yl]-1-(5-hydroxypyridin-2-yl)ethan-1-one] | 0.803 µM | 0.1 to 1
CC(C)(C)OC(=O)Nc1ccc(C(=O)CN2C[C@@H]3C[C@@](O)(Cc4ccccc4)C[C@@H]3C2)cn1 [Example 284, tert-butyl (5-(2-(5-benzyl-5-hydroxyhexahydrocyclo-penta[c]pyrrol-2(1H)-yl)acetyl)pyridin-2-yl)carbamate] | 10 µM | > 10
